Experimental data as given in patent US20260250318A1, “COMPOSITIONS AND METHODS FOR CROSSING THE BLOOD BRAIN BARRIER” (VOYAGER THERAPEUTICS, INC., priority 2022, published 2026).

How the values were obtained:
[1] = system: brain; assay: Matured TTM-001 and TTM-002 variants, NGS enrichment in mouse brain; format: in vivo, mice; settings: relative to AAV9 control
[2] = system: brains, heart, liver, muscle, and DRG of the NHPs; assay: Maturation of TTM-001 and TTM-002 capsids, NGS enrichment in NHP tissues; format: in vivo; settings: relative to AAV9 control
Summary of the method: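 Variants carry mutations within and flanking the loop IV peptide insert: positions 450–466 were triplet-randomized, while positions 449–466 received low-frequency point mutations. The combined pool went into two NHPs, and each peptide was scored by NGS enrichment ratio against AAV9.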

[3] = NGS fold-enrichment, brain of mice
[4] = NGS fold-enrichment, mouse brain
[5] = NGS fold-enrichment of RNA, NHP brain
[6] = NGS fold-enrichment, DRG of NHPs
[7] = NGS fold-enrichment, NHP liver DNA
[8] = NGS fold-enrichment, NHP liver RNA
[9] = NGS fold-enrichment, NHP muscle
[10] = NGS fold-enrichment, RNA, brain of NHPs
[11] = NGS fold-enrichment, heart of NHPs
[12] = NGS fold-enrichment, liver DNA of NHPs
[13] = NGS fold-enrichment, liver RNA of NHPs
[14] = NGS fold-enrichment, muscle of NHPs
[15] = NGS fold-enrichment of matured AAV capsid variants, NHP brain, RNA

Sequence | Fold Enrichment relative to AAV9, Brain (Mouse) [1, 3] | Fold Enrichment relative to AAV9, DRG (NHP) [2, 6] | Fold Enrichment relative to AAV9, Brain (NHP) [2, 10] | Fold Enrichment relative to AAV9, Heart (NHP) [2, 11] | Fold Enrichment relative to AAV9, Liver DNA (NHP) [2, 12] | Fold Enrichment relative to AAV9, Liver RNA (NHP) [2, 13] | Fold Enrichment relative to AAV9, Muscle (NHP) [2, 14] | Fold Enrichment relative to AAV9, Brain (Mouse) ([1]; mouse brain) | Fold Enrichment relative to AAV9, Brain (NHP) [2, 15] | Fold Enrichment relative to AAV9, DRG (NHP) ([2]; NHP DRG) | Fold Enrichment relative to AAV9, Heart (NHP) ([2]; NHP heart) | Fold Enrichment relative to AAV9, Liver DNA (NHP) ([2]; NHP liver, DNA) | Fold Enrichment relative to AAV9, Liver RNA (NHP) ([2]; NHP liver, RNA) | Fold Enrichment relative to AAV9, Muscle (NHP) ([2]; NHP muscle) | further results
KTINGSGSPHSKAQYIHT | 59.649 fold | 0.000 fold | 76.170 fold | 0.014 fold | 0.168 fold | 1.523 fold | 0.033 fold | – | – | – | – | – | – | – | Fold Enrichment relative to AAV9, Brain (Mouse) [1, 4]: 59.649 fold; Fold Enrichment relative to AAV9, Brain (NHP) [2, 5]: 76.170 fold; Fold Enrichment relative to AAV9, DRG (NHP) ([2]; NGS fold-enrichment, NHP DRG): 0.000 fold; Fold Enrichment relative to AAV9, Heart (NHP) ([2]; NGS fold-enrichment, NHP heart): 0.014 fold; Fold Enrichment relative to AAV9, Liver DNA (NHP) [2, 7]: 0.168 fold; Fold Enrichment relative to AAV9, Liver RNA (NHP) [2, 8]: 1.523 fold; Fold Enrichment relative to AAV9, Muscle (NHP) [2, 9]: 0.033 fold
KTINGSGSPHSKAQYQHA | 57.278 fold | 0.000 fold | 64.435 fold | 0.000 fold | 0.097 fold | 0.993 fold | 0.024 fold | – | – | – | – | – | – | – | –
KTINGSGSPHSKAQYQNT | – | – | – | – | – | – | – | 71.846 fold | 50.099 fold | 0.000 fold | 0.008 fold | 0.119 fold | 0.017 fold | 0.000 fold | –
KTINGSGSPHSKAQYRAT | – | – | – | – | – | – | – | 50.650 fold | 51.008 fold | 0.000 fold | 0.158 fold | 0.120 fold | 0.690 fold | 0.000 fold | –
KTINGSGSPHSKAQYSVT | – | – | – | – | – | – | – | 60.023 fold | 57.130 fold | 0.000 fold | 0.093 fold | 0.302 fold | 1.235 fold | 0.000 fold | –
KTINGSGSPHSKARDWQT | – | – | – | – | – | – | – | 120.704 fold | 58.216 fold | 0.000 fold | 0.005 fold | 0.259 fold | 0.800 fold | 0.000 fold | –
KTINGSGSPHSKARGEQT | – | – | – | – | – | – | – | 128.098 fold | 54.207 fold | 0.025 fold | 0.006 fold | 0.327 fold | 0.309 fold | 0.005 fold | –
KTINGSGSPHSKARGLQT | – | – | – | – | – | – | – | 169.881 fold | 52.275 fold | 0.000 fold | 0.000 fold | 1.425 fold | 1.235 fold | 0.036 fold | –
KTINGSGSPHSKASPRQT | – | – | – | – | – | – | – | 67.241 fold | 50.227 fold | 0.088 fold | 0.005 fold | 0.530 fold | 1.761 fold | 0.068 fold | –
KTINGSGSPHSKGHWQQT | 65.252 fold | 0.000 fold | 81.434 fold | 0.000 fold | 1.011 fold | 0.000 fold | 0.000 fold | – | – | – | – | – | – | – | Fold Enrichment relative to AAV9, Brain (Mouse) [1, 4]: 65.252 fold; Fold Enrichment relative to AAV9, Brain (NHP) [2, 5]: 81.434 fold; Fold Enrichment relative to AAV9, DRG (NHP) ([2]; NGS fold-enrichment, NHP DRG): 0.000 fold; Fold Enrichment relative to AAV9, Heart (NHP) ([2]; NGS fold-enrichment, NHP heart): 0.000 fold; Fold Enrichment relative to AAV9, Liver DNA (NHP) [2, 7]: 1.011 fold; Fold Enrichment relative to AAV9, Liver RNA (NHP) [2, 8]: 0.000 fold; Fold Enrichment relative to AAV9, Muscle (NHP) [2, 9]: 0.000 fold
KTINGSGSPHSKGQNPPT | 134.808 fold | 0.000 fold | 72.339 fold | 0.206 fold | 0.041 fold | 0.000 fold | 0.000 fold | – | – | – | – | – | – | – | –
KTINGSGSPHSKLKSQQT | – | – | – | – | – | – | – | 95.240 fold | 50.368 fold | 0.000 fold | 0.296 fold | 1.096 fold | 1.796 fold | 0.000 fold | –
KTINGSGSPHSKLQKQQT | – | – | – | – | – | – | – | 61.833 fold | 52.144 fold | 0.615 fold | 0.477 fold | 0.429 fold | 1.113 fold | 1.071 fold | –
KTINGSGSPHSKNQWQQT | – | – | – | – | – | – | – | 65.506 fold | 50.800 fold | 0.000 fold | 0.044 fold | 0.324 fold | 0.111 fold | 0.047 fold | –
KTINGSGSPHSKNRDQQT | – | – | – | – | – | – | – | 100.300 fold | 51.830 fold | 0.000 fold | 0.008 fold | 0.138 fold | 0.480 fold | 0.000 fold | –
KTINGSGSPHSKRLEQQT | – | – | – | – | – | – | – | 71.704 fold | 53.512 fold | 0.000 fold | 0.118 fold | 0.292 fold | 0.161 fold | 0.003 fold | –
KTINGSGSPHSKRMEQQT | – | – | – | – | – | – | – | 81.769 fold | 50.177 fold | 0.000 fold | 0.000 fold | 0.208 fold | 1.327 fold | 0.000 fold | –
KTINGSGSPHSKRPEQQT | 50.319 fold | 0.000 fold | 80.418 fold | 0.013 fold | 0.361 fold | 0.149 fold | 0.000 fold | – | – | – | – | – | – | – | Fold Enrichment relative to AAV9, Brain (Mouse) [1, 4]: 50.319 fold; Fold Enrichment relative to AAV9, Brain (NHP) [2, 5]: 80.418 fold; Fold Enrichment relative to AAV9, DRG (NHP) ([2]; NGS fold-enrichment, NHP DRG): 0.000 fold; Fold Enrichment relative to AAV9, Heart (NHP) ([2]; NGS fold-enrichment, NHP heart): 0.013 fold; Fold Enrichment relative to AAV9, Liver DNA (NHP) [2, 7]: 0.361 fold; Fold Enrichment relative to AAV9, Liver RNA (NHP) [2, 8]: 0.149 fold; Fold Enrichment relative to AAV9, Muscle (NHP) [2, 9]: 0.000 fold
KTINGSGSPHSKSQNQHI | 76.025 fold | 0.000 fold | 59.438 fold | 0.099 fold | 0.108 fold | 0.111 fold | 0.000 fold | – | – | – | – | – | – | – | –
KTINGSGSPHSKSQNVQT | 56.672 fold | 0.000 fold | 66.627 fold | 0.190 fold | 0.188 fold | 0.202 fold | 0.000 fold | – | – | – | – | – | – | – | –
KTINGSGSPHSKSQSQLT | – | – | – | – | – | – | – | 125.577 fold | 55.430 fold | 0.000 fold | 0.035 fold | 0.013 fold | 0.050 fold | 0.000 fold | –
